Measured values taken from US9339463B2, “Micronized opioid compositions having a specific particle size distribution” (priority 2007, dated 2016).
Where “and” joins values, the source holds several entries; their conditions need not be identical. Equal entries are not always repeated.

Assays:
Type in all cases: physicochemical
[1] = Physical stability on storage: particle size (Dv90) by laser diffraction
[2] = Chemical stability on storage: assay and impurities
Procedure: Samples of Example 2 and additional samples comprising micronized and non-micronized oxycodone useful for exemplary dosage forms are tested for their chemical stability and physical stability. Based on a comparison of stability data from micronized and non-micronized samples stored at both 25° C./60% RH and 40 C.°/75% RH, no differences are observed in the impurity profile through three months of study as shown in Tables 4 and 5 for exemplary lots. The impurities analyzed include (HOXY), 14-Hydroxycodeinone; (DHOXYN), 7,8-Dihydro-8,14-Dihydroxycodeinone; (DHOXY), 7,8-Dihydro-14-hydroxycodeine; (OXYE), Oxycodone ethylenolate; (OXYN), 1-Hydroxyoxycodone and Oxycodone N-oxide. Most of the impurities are found to be below the limit of quantitation (LOQ), except for HOXY and DHOXYN which were unchanged at 0.1%. […] The solid state stability of the micronized oxycodone is monitored for particle size, XRPD, DSC, and microscopy as shown in Table 6.

[3] = Particle size by optical microscopy, number % undersize; details: mean diameter
Procedure: As a secondary analytical method, the micronized and the non-micronized oxycodone analyzed by laser diffraction with results shown in Table 1, were analyzed by optical microscopy to evaluate particle size and the results are shown in Table 2. Sample aliquots (˜50 mg for micronized and ˜225 mg for non-micronized) were dispersed in 10 ml of sunflower oil and viewed on a Nikon microscope equipped with a 10× objective. Particle size (mean diameter) was determined using Image Pro® Plus software and expressed as a number % undersize. The particle size values determined by optical microscopy as shown in Table 2 are consistent with the laser diffraction particle size data shown in Table 1.

[4] = Particle size distribution by laser diffraction (Malvern Mastersizer 2000), oxycodone base
[5] = 1 month, stored, including at 25° C./60% RH and/or 40° C./75% RH (not specified)
[6] = 3 months, stored, including at 25° C./60% RH and/or 40° C./75% RH (not specified)
[7] = 6 months, stored, including at 25° C./60% RH and/or 40° C./75% RH (not specified)
[8] = 9 months, stored, including at 25° C./60% RH and/or 40° C./75% RH (not specified)
[9] = 12 months, stored, including at 25° C./60% RH and/or 40° C./75% RH (not specified)
[10] = Time 0, listed as Non-micronized Oxycodone Free Base
[11] = Table 1 analysis, lot 2 in duplicate
[12] = additional laser diffraction analysis, Table 3

COc1ccc2c3c1O[C@H]1C(=O)CC[C@@]4(O)[C@@H](C2)N(C)CC[C@]314 [second high purity lot, oxycodone]
Particle size (Dv90) [1, 5]: 4 μ
Particle size (Dv90) [1, 6]: 4 μ
Particle size (Dv90) [1, 7]: 5 μ
Particle size (Dv90) [1, 8]: 5 μ
Particle size (Dv90) [1, 9]: 5 μ
Particle size (Dv90) ([1]; 25° C./60% RH, 1 month, listed as second high purity micronized lot): 4 μ
Particle size (Dv90) ([1]; 25° C./60% RH, 3 months, listed as second high purity micronized lot): 4 μ
Particle size (Dv90) ([1]; 25° C./60% RH, 6 months, listed as second high purity micronized lot): 6 μ
Particle size (Dv90) ([1]; 25° C./60% RH, 9 months, listed as second high purity micronized lot): 5 μ
Particle size (Dv90) ([1]; 25° C./60% RH, 12 months, listed as second high purity micronized lot): 6 μ
Particle size (Dv90) ([1]; 40° C./75% RH, 1 month, listed as second high purity micronized lot): 5 μ
Particle size (Dv90) ([1]; 40° C./75% RH, 3 months, listed as second high purity micronized lot): 5 μ
Particle size (Dv90) ([1]; 40° C./75% RH, 6 months, listed as second high purity micronized lot): 6 μ
Particle size (Dv90) ([1]; Time 0): 4 μ
Particle size (Dv90) ([1]; Time 0, listed as second high purity micronized lot): 4 μ

COc1ccc2c3c1O[C@H]1C(=O)CC[C@@]4(O)[C@@H](C2)N(C)CC[C@]314 [Non-micronized, oxycodone]
1-HydroxyOXY ([2]; 25° C./60% RH, 1 mo): <LOQ
DHOXY (7,8-Dihydro-14-hydroxycodeine) ([2]; 25° C./60% RH, 1 mo): <LOQ
DHOXYN (7,8-Dihydro-8,14-Dihydroxycodeinone) ([2]; 25° C./60% RH, 1 mo): 0.10%
HOXY (14-Hydroxycodeinone) ([2]; 25° C./60% RH, 1 mo): 0.08%
OXYE (Oxycodone ethylenolate) ([2]; 25° C./60% RH, 1 mo): <LOQ
OXYN ([2]; 25° C./60% RH, 1 mo): <LOQ
Other (impurities; Table 5: >0.05%) ([2]; 25° C./60% RH, 1 mo): <LOQ
Total impurities ([2]; 25° C./60% RH, 1 mo): 0.18%
Assay ([2]; 25° C./60% RH, 1 mo, listed as Non-micronized Oxycodone Free Base): 99.6%
1-HydroxyOXY ([2]; 25° C./60% RH, 3 mo): <LOQ
DHOXY (7,8-Dihydro-14-hydroxycodeine) ([2]; 25° C./60% RH, 3 mo): <LOQ
DHOXYN (7,8-Dihydro-8,14-Dihydroxycodeinone) ([2]; 25° C./60% RH, 3 mo): 0.10%
HOXY (14-Hydroxycodeinone) ([2]; 25° C./60% RH, 3 mo): 0.08%
OXYE (Oxycodone ethylenolate) ([2]; 25° C./60% RH, 3 mo): <LOQ
OXYN ([2]; 25° C./60% RH, 3 mo): <LOQ
Other (impurities; Table 5: >0.05%) ([2]; 25° C./60% RH, 3 mo): <LOQ
Total impurities ([2]; 25° C./60% RH, 3 mo): 0.18%
Assay ([2]; 25° C./60% RH, 3 mo, listed as Non-micronized Oxycodone Free Base): 99.6%
1-HydroxyOXY ([2]; 40° C./75% RH, 1 mo): <LOQ
DHOXY (7,8-Dihydro-14-hydroxycodeine) ([2]; 40° C./75% RH, 1 mo): <LOQ
DHOXYN (7,8-Dihydro-8,14-Dihydroxycodeinone) ([2]; 40° C./75% RH, 1 mo): 0.10%
HOXY (14-Hydroxycodeinone) ([2]; 40° C./75% RH, 1 mo): 0.08%
OXYE (Oxycodone ethylenolate) ([2]; 40° C./75% RH, 1 mo): <LOQ
OXYN ([2]; 40° C./75% RH, 1 mo): <LOQ
Total impurities ([2]; 40° C./75% RH, 1 mo): 0.18%
Assay ([2]; 40° C./75% RH, 1 mo, listed as Non-micronized Oxycodone Free Base): 99.6%
1-HydroxyOXY ([2]; 40° C./75% RH, 3 mo): <LOQ
DHOXY (7,8-Dihydro-14-hydroxycodeine) ([2]; 40° C./75% RH, 3 mo): <LOQ
DHOXYN (7,8-Dihydro-8,14-Dihydroxycodeinone) ([2]; 40° C./75% RH, 3 mo): 0.10%
HOXY (14-Hydroxycodeinone) ([2]; 40° C./75% RH, 3 mo): 0.08%
OXYE (Oxycodone ethylenolate) ([2]; 40° C./75% RH, 3 mo): <LOQ
OXYN ([2]; 40° C./75% RH, 3 mo): <LOQ
Other (impurities; Table 5: >0.05%) ([2]; 40° C./75% RH, 3 mo): <LOQ
Total impurities ([2]; 40° C./75% RH, 3 mo): 0.18%
Assay ([2]; 40° C./75% RH, 3 mo, listed as Non-micronized Oxycodone Free Base): 99.5%
1-HydroxyOXY ([2]; Time 0): <LOQ
DHOXY (7,8-Dihydro-14-hydroxycodeine) ([2]; Time 0): <LOQ
OXYE (Oxycodone ethylenolate) ([2]; Time 0): <LOQ
OXYN ([2]; Time 0): <LOQ
Other (impurities; Table 5: >0.05%) ([2]; Time 0): <LOQ
Total impurities ([2]; Time 0): 0.18%
Assay [2, 10]: 101.1%
DHOXYN (7,8-Dihydro-8,14-Dihydroxycodeinone) [2, 10]: 0.10%
HOXY (14-Hydroxycodeinone) [2, 10]: 0.08%
% ≦ 1μ [3]: 21.4%
% ≦ 5μ [3]: 50.7%
% ≦ 10μ [3]: 69.1%
Particle size (Dv10) [4, 11]: 5.7 μ
Particle size (Dv50) [4, 11]: 20.5 μ
Particle size (Dv90) [4, 11]: 55.5 μ
Particle size (Dv90) ([4]; Table 1 analysis, lot 2 in duplicate, listed as non-micronized sample): 56 μ
Particle size (Dv10) [4, 12]: 4.9 μ
Particle size (Dv50) [4, 12]: 20.1 μ
Particle size (Dv90) [4, 12]: 50.9 μ
Particle size (Dv90) ([4]; additional laser diffraction analysis, Table 3, listed as non-micronized): 51 μ
mean particle size ([4]; oxycodone base before micronization): 51 μ

COc1ccc2c3c1O[C@H]1C(=O)CC[C@@]4(O)[C@@H](C2)N(C)CC[C@]314 [first high purity lot, oxycodone]
Particle size (Dv90) [1, 5]: 5 μ
Particle size (Dv90) [1, 6]: 5 μ
Particle size (Dv90) [1, 7]: 5 μ
Particle size (Dv90) [1, 8]: 6 μ
Particle size (Dv90) [1, 9]: 6 μ
Particle size (Dv90) ([1]; 25° C./60% RH, 1 month, listed as first high purity micronized lot): 4 μ
Particle size (Dv90) ([1]; 25° C./60% RH, 3 months, listed as first high purity micronized lot): 5 μ
Particle size (Dv90) ([1]; 25° C./60% RH, 6 months, listed as first high purity micronized lot): 5 μ
Particle size (Dv90) ([1]; 25° C./60% RH, 9 months, listed as first high purity micronized lot): 7 μ
Particle size (Dv90) ([1]; 25° C./60% RH, 12 months, listed as first high purity micronized lot): 6 μ
Particle size (Dv90) ([1]; 40° C./75% RH, 1 month, listed as first high purity micronized lot): 5 μ
Particle size (Dv90) ([1]; 40° C./75% RH, 3 months, listed as first high purity micronized lot): 5 μ
Particle size (Dv90) ([1]; 40° C./75% RH, 6 months, listed as first high purity micronized lot): 5 μ
Particle size (Dv90) ([1]; Time 0): 4 μ
Particle size (Dv90) ([1]; Time 0, listed as first high purity micronized lot): 4 μ

COc1ccc2c3c1O[C@H]1C(=O)CC[C@@]4(O)[C@@H](C2)N(C)CC[C@]314 [third lot, oxycodone]
Particle size (Dv90) ([1]; 25° C./60% RH, 6 months): 6 μ
Particle size (Dv90) ([1]; 25° C./60% RH, 9 months): 6 μ
Particle size (Dv90) ([1]; 25° C./60% RH, 12 months): 7 μ
Particle size (Dv90) ([1]; Time 0): 4 μ

COc1ccc2c3c1O[C@H]1C(=O)CC[C@@]4(O)[C@@H](C2)N(C)CC[C@]314 [Lot 2 (waste), oxycodone]
Particle size (Dv10) [4, 11]: 0.5, 0.5 μ
Particle size (Dv50) [4, 11]: 1.6 μ and 2.3 μ
Particle size (Dv90) [4, 11]: 3.3 μ and 4.9 μ

COc1ccc2c3c1O[C@H]1C(=O)CC[C@@]4(O)[C@@H](C2)N(C)CC[C@]314 [first lot, oxycodone]
Particle size (Dv90) ([1]; 25° C./60% RH, 6 months): 7 μ
Particle size (Dv90) ([1]; 25° C./60% RH, 9 months): 6 μ
Particle size (Dv90) ([1]; 25° C./60% RH, 12 months): 7 μ
Particle size (Dv90) ([1]; Time 0): 6 μ

COc1ccc2c3c1O[C@H]1C(=O)CC[C@@]4(O)[C@@H](C2)N(C)CC[C@]314 [third high purity lot, oxycodone]
Particle size (Dv90) [1, 5]: 4 μ
Particle size (Dv90) [1, 6]: 4 μ
Particle size (Dv90) [1, 7]: 5 μ
Particle size (Dv90) [1, 8]: 5 μ
Particle size (Dv90) [1, 9]: 5 μ
Particle size (Dv90) ([1]; 25° C./60% RH, 1 month, listed as third high purity micronized lot): 4 μ
Particle size (Dv90) ([1]; 25° C./60% RH, 3 months, listed as third high purity micronized lot): 4 μ
Particle size (Dv90) ([1]; 25° C./60% RH, 6 months, listed as third high purity micronized lot): 5 μ
Particle size (Dv90) ([1]; 25° C./60% RH, 9 months, listed as third high purity micronized lot): 5 μ
Particle size (Dv90) ([1]; 25° C./60% RH, 12 months, listed as third high purity micronized lot): 5 μ
Particle size (Dv90) ([1]; 40° C./75% RH, 1 month, listed as third high purity micronized lot): 4 μ
Particle size (Dv90) ([1]; 40° C./75% RH, 3 months, listed as third high purity micronized lot): 5 μ
Particle size (Dv90) ([1]; 40° C./75% RH, 6 months, listed as third high purity micronized lot): 5 μ
Particle size (Dv90) ([1]; Time 0): 5 μ
Particle size (Dv90) ([1]; Time 0, listed as third high purity micronized lot): 5 μ

COc1ccc2c3c1O[C@H]1C(=O)CC[C@@]4(O)[C@@H](C2)N(C)CC[C@]314 [second lot, oxycodone]
Particle size (Dv90) ([1]; 25° C./60% RH, 6 months): 5 μ
Particle size (Dv90) ([1]; 25° C./60% RH, 9 months): 6 μ
Particle size (Dv90) ([1]; 25° C./60% RH, 12 months): 6 μ
Particle size (Dv90) ([1]; Time 0): 4 μ

COc1ccc2c3c1O[C@H]1C(=O)CC[C@@]4(O)[C@@H](C2)N(C)CC[C@]314 [micronized oxycodone preparation, oxycodone]
Particle size (Dv90) ([1]; Time 0): 5-6 μ
Particle size (Dv90 at three months) ([1]; stored at 25° C./60% RH and 40°/75% RH, 3 months): 6-11 μ
